# Laboratory results as given in patent US12059429B2, “Hornerin: a novel non-VEGF mediated angiogenic protein expressed in both human and mouse angiogenic endothelial cells and human pancreatic cancer cells” (University of Virginia Patent Foundation, priority 2018, dated 2024).
# Experiments:
# [1] = system: hornerin; assay: Immunoblot of hornerin in HUVECs treated with growth factors; assay type: cell-based, human; details: 24 hours treatment; growth factors at published B-max concentrations, EGF at increasing concentrations
# Description: HUVECs were cultured in 10 cm dishes for 24 hours prior to a change to media containing VEGF (at B-max concentration), TCM, or VC. After 24 hours treatment, the cells were washed with DPBST two times and lysed with radioimmunoprecipitation assay (RIPA) buffer (Thermo Scientific). Lysate protein concentrations were measured by the bicinchoninic acid assay (Pierce, Waltham, MA, USA) and equivalent amounts of protein were loaded into precast 4-15% tris-glycine eXtended (TGX) polyacrylamide gels (Bio-Rad, Hercules, CA, USA). The proteins were resolved by electrophoresis and transferred to nitrocellulose membranes using the iBlot system (Invitrogen, Carlsbad, CA, USA). The membranes were then washed in Tris-buffered saline+1% Tween-20 (TBST), blocked for 30 minutes in TBST+2% milk solution, and incubated overnight at 4° C. with primary antibodies anti-hornerin (Abcam, Cambridge, UK, ab78909; (1:1000)) and anti-HSP90 (Cell Signaling Technology, Danvers, MA, USA, 4877; (1:1000)). The following day the membranes were washed and subsequently incubated with the secondary antibodies anti-goat HRP (R&D Systems, Minneapolis, MN, USA, HAF109; 1:5000) and anti-rabbit HRP (GE Healthcare, NA934V; 1:5000) for 45 minutes at RT. […]
# Major constituents of TCM were determined using a Human Angiogenesis Antibody Array (Affymetrix, Santa Clara, CA, USA) per manufacturer's instructions. […]
# [2] = system: hornerin; assay: Immunoblot of hornerin in L3.6pl cells treated with EGF; assay type: cell-based, human; details: EGF 1, 10 or 100 ng/mL, 48 hours
# [3] = system: hornerin; assay: Immunoblot of hornerin in human keratinocytes treated with EGF; assay type: cell-based; details: 48 hours
# [4] = system: TCM-treated HUVECs; assay: Phage-based ELISA on treated HUVECs with two-way ANOVA; assay type: binding, human
# Description: HUVEC were plated in MaxiSorp 96-well plates (NUNC, Rochester, NY, USA) and cultured for 24 hours, at which time the cells were treated with media containing VEGF (VEGFCM) at B-max concentration (Igarashi et al., 2003) or TCM for an additional 24 h. ELISA was initiated by adding 1010 isolated phage to each well for a 1 hour incubation. After three washes with DPBS+0.1% Tween-20 (DPBST), the cells were incubated with horse radish peroxidase (HRP)-tagged anti-M13 antibody (GE Healthcare, Little Chalfont, UK, 27-9421-01; (1:3000)) for 30 min. The plates were washed three additional times (DBPST) then developed with 200 μL 3,3′,5,5′-Tetramethylbenzidine (Sigma) for 10 minutes. The A650 was measured on a microplate reader (Molecular Devices, Sunnyvale, CA, USA).
# Absorbance values were corrected by comparison to unmodified control KE phage. […]
# As VEGF is highly abundant in the pancreatic tumor milieu, clones were further segregated based on their ability to bind to VEGF-treated HUVECs vs. tumor conditioned media (TCM)-treated HUVECs. […] Enzyme-linked immunoabsorbent assay (ELISA) results were analyzed by two-way analysis of variance (ANOVA) to find clones that consistently bound to HUVECs treated with TCM, but not vehicle control (VC) or VEGF-supplemented control media (VEGFCM; FIGS. 2A and 2B). […]
# [5] = molecular target: T1, hornerin (Homo sapiens, UniProt Q86YZ3); assay: Phage display-based functional proteomics (pulldown, MS/MS, anti-hornerin immunoblot); assay type: binding; details: tandem mass spectroscopy of pulldown lysates, confirmed by immunoblot
# T1 construct: A unique band in the PTEM 9 lane that was not present in the control sample corresponded to the predicted molecular weight of hornerin; endogenous in cells
# Description: The gel piece was transferred to a siliconized tube and washed and destained in 200 μL 50% methanol overnight. The gel pieces were dehydrated in acetonitrile, rehydrated in 30 μL of 10 mM dithiolthreitol in 0.1M ammonium bicarbonate, and reduced at room temperature for 0.5 hours. The DTT solution was removed and the sample alkylated in 30 μL 50 mM iodoacetamide in 0.1M ammonium bicarbonate at room temperature for 0.5 hours. The reagent was removed and the gel pieces dehydrated in 100 μL acetonitrile. The acetonitrile was removed and the gel pieces rehydrated in 100 μL 0.1M ammonium bicarbonate. The pieces were dehydrated in 100 μL acetonitrile, the acetonitrile removed and the pieces completely dried by vacuum centrifugation. […]
# The LC-MS system consisted of a Thermo Electron Velos Orbitrap ETD mass spectrometer system with a Protana nanospray ion source interfaced to a self-packed 8 cm×75 μm id Phenomenex Jupiter 10 μm C18 reversed-phase capillary column. […] The digest was analyzed using the double play capability of the instrument acquiring full scan mass spectra (Orbitrap, 60 K resolution) to determine peptide molecular weights followed by product ion spectra (ion trap) to determine amino-acid sequence in sequential scans. […]
# The data were analyzed by database searching using the Sequest search algorithm within Proteome Discoverer (v1.2) against IPI Human (v3.78, 86,702 entries). […]
# T1 sequence (Q86YZ3 whole entry): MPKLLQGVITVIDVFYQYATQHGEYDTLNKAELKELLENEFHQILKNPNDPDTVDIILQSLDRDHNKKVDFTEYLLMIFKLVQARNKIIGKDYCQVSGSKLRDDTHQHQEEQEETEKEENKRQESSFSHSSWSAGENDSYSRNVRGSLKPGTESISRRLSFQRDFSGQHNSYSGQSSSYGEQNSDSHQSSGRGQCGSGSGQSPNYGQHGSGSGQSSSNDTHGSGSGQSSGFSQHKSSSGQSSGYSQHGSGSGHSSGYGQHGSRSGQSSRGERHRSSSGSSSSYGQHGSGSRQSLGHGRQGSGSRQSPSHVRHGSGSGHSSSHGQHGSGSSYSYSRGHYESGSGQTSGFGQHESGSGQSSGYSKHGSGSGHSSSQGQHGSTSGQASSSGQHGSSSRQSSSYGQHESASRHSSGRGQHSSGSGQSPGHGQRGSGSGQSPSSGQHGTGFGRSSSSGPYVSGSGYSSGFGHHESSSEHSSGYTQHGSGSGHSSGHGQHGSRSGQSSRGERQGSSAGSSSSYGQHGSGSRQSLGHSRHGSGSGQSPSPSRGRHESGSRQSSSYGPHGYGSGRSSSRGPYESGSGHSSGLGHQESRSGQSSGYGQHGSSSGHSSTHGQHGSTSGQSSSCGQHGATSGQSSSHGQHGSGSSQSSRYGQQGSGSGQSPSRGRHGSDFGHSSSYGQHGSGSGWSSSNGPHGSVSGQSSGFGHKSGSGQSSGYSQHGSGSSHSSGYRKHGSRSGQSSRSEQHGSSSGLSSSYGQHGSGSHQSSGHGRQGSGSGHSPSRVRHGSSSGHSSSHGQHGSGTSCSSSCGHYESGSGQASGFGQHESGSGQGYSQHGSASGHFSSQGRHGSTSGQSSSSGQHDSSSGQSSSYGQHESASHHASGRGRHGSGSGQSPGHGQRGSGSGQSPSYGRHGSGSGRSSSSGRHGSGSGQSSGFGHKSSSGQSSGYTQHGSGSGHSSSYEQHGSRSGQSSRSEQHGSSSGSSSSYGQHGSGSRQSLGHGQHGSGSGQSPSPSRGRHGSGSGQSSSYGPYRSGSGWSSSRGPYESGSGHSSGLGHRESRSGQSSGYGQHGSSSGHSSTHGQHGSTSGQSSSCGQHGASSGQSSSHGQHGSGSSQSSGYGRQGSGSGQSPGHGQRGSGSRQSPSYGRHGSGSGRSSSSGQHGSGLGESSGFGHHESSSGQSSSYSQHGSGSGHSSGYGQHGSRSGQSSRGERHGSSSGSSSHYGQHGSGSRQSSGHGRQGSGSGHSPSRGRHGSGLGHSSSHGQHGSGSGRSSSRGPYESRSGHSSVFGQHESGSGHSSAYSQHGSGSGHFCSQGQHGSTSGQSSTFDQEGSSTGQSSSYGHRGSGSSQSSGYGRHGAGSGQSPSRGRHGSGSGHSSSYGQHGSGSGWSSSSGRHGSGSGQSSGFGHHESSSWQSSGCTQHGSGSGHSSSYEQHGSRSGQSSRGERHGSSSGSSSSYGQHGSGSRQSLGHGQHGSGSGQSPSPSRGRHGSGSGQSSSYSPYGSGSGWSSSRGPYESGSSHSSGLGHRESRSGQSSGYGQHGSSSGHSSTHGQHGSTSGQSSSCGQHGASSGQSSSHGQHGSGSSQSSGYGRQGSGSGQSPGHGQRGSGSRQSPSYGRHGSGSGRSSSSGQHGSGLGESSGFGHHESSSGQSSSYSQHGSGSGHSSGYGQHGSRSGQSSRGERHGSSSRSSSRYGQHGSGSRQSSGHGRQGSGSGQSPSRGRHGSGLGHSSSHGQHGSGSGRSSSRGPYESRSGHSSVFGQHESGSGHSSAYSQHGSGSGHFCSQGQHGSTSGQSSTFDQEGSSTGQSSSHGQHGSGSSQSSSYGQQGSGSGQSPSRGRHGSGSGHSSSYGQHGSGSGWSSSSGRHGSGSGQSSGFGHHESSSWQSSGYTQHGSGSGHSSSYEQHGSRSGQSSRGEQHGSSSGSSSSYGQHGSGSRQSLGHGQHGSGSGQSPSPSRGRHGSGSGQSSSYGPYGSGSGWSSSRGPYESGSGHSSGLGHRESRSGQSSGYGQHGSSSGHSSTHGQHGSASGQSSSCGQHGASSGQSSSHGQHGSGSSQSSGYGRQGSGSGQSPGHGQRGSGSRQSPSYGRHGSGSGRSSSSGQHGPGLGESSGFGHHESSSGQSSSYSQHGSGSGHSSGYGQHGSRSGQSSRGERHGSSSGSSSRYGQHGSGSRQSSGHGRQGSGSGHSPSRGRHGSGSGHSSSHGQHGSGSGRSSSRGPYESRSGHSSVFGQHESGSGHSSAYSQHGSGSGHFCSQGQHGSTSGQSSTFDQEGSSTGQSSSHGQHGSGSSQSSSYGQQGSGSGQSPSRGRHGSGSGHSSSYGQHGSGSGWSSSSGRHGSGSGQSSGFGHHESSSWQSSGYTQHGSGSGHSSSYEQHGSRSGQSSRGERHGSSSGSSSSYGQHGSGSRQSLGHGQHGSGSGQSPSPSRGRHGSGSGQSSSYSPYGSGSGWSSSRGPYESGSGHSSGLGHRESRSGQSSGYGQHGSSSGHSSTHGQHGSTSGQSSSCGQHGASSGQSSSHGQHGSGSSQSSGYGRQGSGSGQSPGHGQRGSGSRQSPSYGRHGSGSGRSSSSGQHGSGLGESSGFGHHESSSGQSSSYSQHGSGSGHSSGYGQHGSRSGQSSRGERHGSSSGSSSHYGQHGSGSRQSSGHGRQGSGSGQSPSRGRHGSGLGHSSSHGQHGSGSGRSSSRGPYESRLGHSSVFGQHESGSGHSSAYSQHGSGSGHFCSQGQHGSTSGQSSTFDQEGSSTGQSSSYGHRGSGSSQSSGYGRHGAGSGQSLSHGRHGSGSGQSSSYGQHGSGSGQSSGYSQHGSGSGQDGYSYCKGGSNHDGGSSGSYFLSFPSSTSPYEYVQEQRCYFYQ
Substance,hornerin expression in HUVECs [1],hornerin expression in L3.6pl cells [2],hornerin expression in keratinocytes [3],specificity (fold over vehicle control) among clones binding selectively to TCM-treated HUVECs [4],binding partner identified [5]
EGF: recombinant human EGF (PeproTech),increased,concentration-dependent increase in expression,more modest response,–,–
SLLNRMP (listed as Homo sapiens) [PTEM 9],–,–,–,highest average specificity,hornerin as the candidate protein
